Measured values reported in PMC8315011, “The Spleen Tyrosine Kinase Inhibitor, Entospletinib (GS-9973) Restores Chemosensitivity in Lung Cancer Cells by Modulating ABCG2-mediated Multidrug Resistance” (International Journal of Biological Sciences, 2021).

Key:
ABCG2 [1] = biological target: T1, ABCG2 (Homo sapiens, UniProt Q9UNQ0); assay: ABCG2 ATPase stimulation in membrane vesicles ([…] of basal); supported by inhibition of [3H]-mitoxantrone efflux in NCI-H460/MX20 cells at […]; assay type: biochemical; parameters: membrane vesicles with ABCG2 (PREDEASY ATPase kit)
T1 sequence (Q9UNQ0 1-655): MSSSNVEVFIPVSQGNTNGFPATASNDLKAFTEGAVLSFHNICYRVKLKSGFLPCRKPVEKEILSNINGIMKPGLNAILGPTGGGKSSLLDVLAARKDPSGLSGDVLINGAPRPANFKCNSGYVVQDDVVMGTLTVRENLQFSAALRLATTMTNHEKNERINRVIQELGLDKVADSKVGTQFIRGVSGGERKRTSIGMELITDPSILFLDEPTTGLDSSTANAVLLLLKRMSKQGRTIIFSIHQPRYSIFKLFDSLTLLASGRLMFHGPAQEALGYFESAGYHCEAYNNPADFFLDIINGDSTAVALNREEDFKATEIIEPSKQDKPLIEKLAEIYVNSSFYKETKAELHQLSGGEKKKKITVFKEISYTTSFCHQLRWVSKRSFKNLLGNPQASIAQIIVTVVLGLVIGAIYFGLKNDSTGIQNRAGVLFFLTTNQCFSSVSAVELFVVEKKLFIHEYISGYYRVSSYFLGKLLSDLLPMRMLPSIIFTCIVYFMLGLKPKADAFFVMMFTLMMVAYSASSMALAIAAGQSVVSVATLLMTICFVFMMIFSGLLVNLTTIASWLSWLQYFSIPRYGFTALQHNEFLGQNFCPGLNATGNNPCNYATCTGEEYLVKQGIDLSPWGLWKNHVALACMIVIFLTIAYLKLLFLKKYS

ABCG2 [2] = biological target: T1, ABCG2

SMILES | EC50 (ABCG2 [1]) | radiolabelled substrate accumulation and efflux, parental vs ABCG2-overexpressin (ABCG2 [2])
c1cn2cc(-c3ccc4cn[nH]c4c3)nc(Nc3ccc(N4CCOCC4)cc3)c2n1 [GS-9973] | 420 nM | –
O=C1c2c(O)ccc(O)c2C(=O)c2c(NCCNCCO)ccc(NCCNCCO)c21 [mitoxantrone] | – | proving that the efflux of [^3H]-mitoxantrone was mediated by the ABCG2 transporter
